Laboratory results as given in patent publication US11008572B2, “Methods and compositions for modulating splicing” (SKYHAWK THERAPEUTICS, INC., priority 2017, dated 2021).

System: FOXM1^A2 mRNA and FOXM1^BC mRNA
Assay: Splicing assay (FOXM1), qPCR of isoform mRNAs
Assay type: cell-based
Conditions: FoxM1 A mRNA increase (exon excluded); read-out: Splice EC50 (nM) FoxM1 A mRNA increase (exon excluded)
Procedure: Various cells lines were treated with the SMSMs described herein. RNA was then isolated, cDNA synthesized, qPCR performed and the levels of various mRNA targets of the SMSMs were determined. In some instances, RNA was isolated, cDNA synthesized, qPCR performed and the levels of mRNA isoforms in the various cell samples were determined.
On the day of the experiment, a 96-well plate was seeded with the cell lines of interest. The cells were diluted with full growth media to a concentration of 2.0×10^5 cells/mL and 100 μL of cells were added to each well (20,000 cells per well). The cells were treated with a compound immediately after plating.
The compounds were then added to the cell plate using the HP compound dispenser. In the initial experiment, a top concentration of 10 μM and an 8 point 4-fold dilution scheme was used. The stock compounds were made at a concentration of 5 mM, and the DMSO concentration was set to 0.2%. DMSO was used to normalize all the compound-containing wells and the untreated cells.
The treated cells were incubated at 37° C. in a 5% CO2 incubator for the desired amount of time. Plates were placed in a plastic bag with a wet paper towel to prevent evaporation.
RNA was isolated using the Cells to CT kit (ThermoFisher, AM1728). The cells were washed once with 100 μL cold PBS. 50 μL of lysis buffer was added to each well/tube (49.5 μL lysis buffer+0.5 μL DNase I per well/tube). The lysis reaction was mixed and incubated at room temperature for 5 minutes. 5 μL of stop solution was added directly into each cell lysis reaction and mixed by pipetting up and down 5 times. The plates/tubes were incubated at room temperature for 2 minutes then placed on ice if the cDNA synthesis was to be performed immediately. Otherwise, the plates/tubes were stored at −80° C. cDNA synthesis reactions were then performed. Reverse Transcription (RT) Master mix was prepared according to the table below.
40 μL RT master mix was added to PCR tubes or plate wells. 10 μL of RNA was added to each tube/well. The RT thermal cycler program was then run and tubes or plate wells were incubated at 37° C. for 1 hour, then at 95° C. for 5 minutes to deactivate the enzyme.
The qPCR was performed using a QuantStudio 6 instrument (ThermoFisher) and the following cycling conditions and according to the tables below. All samples and standards were analyzed in triplicate. Cycle 1: 2 minutes at 50° C. Cycle 2: 10 minutes at 95° C. Cycle 3 (repeat 40 times): 15 seconds at 95° C., 1 minute at 60° C.
The determined isoform 2and isoform 1quantities were then be used to determine the isoform 2: […] at the various compound concentrations. The PPIA quantities were used in the normalization to account of cell proliferation effects of the compounds.
The dilution necessary to make the top standard is calculated. A top concentration 200,000,000 copies/μL of the stock plasmid was prepared in TE buffer. A series of 10-fold dilutions, also in TE, were then made. A total of 5 μL of each standard was used in a qPCR well to generate samples containing 109 copies, […], 10^7copies, 10^6 copies, 10^5 copies, 10^4 copies, 10^3 copies, 10^2 copies, 10^1copies, and 0 copies.
An assay to measure the FOXM1^A2 mRNA and FOXM1^BC mRNA, or MADD^WT (isoform 4) mRNA and MADD^Ex16 (isoform 3) mRNA, or MAPTau^4R mRNA and MAPTau^3R mRNA simultaneously in cell wells was performed. The RNA values were measured relative to DMSO control and also included a housekeeping gene, PPIA to ensure data was consistent. The mRNA values were measured after 24 hours of incubation with the SMSM compounds.

Row | Compound | EC50 [nM]
1 | 2-(6-(((1R,3s,5S)-1,5-dimethyl-8-azabicyclo[3.2.1]octan-3-yl)(methyl)amino)pyridazin-3-yl)-5-(4-methyl-1H-imidazol-1-yl)phenol [compound 177] | < 10

Same assay, conditions: FoxM1 BC mRNA decrease (exon included); read-out: Splice IC50 (nM) FoxM1 BC mRNA decrease (exon included)

Row | Compound | IC50 [nM]
2 | 2-(6-(((1R,3s,5S)-1,5-dimethyl-8-azabicyclo[3.2.1]octan-3-yl)(methyl)amino)pyridazin-3-yl)-5-(4-methyl-1H-imidazol-1-yl)phenol [compound 177] | < 10

System: A-673 cells
Assay: Cell viability, crystal violet staining
Assay type: cell-based
Conditions: Homo sapiens, A673, cell viability, read-out: A-673 IC50 (nM) Cell viability
Procedure: To measure cell viability, cells were plated in 96-well plastic tissue culture plates at a density of 5×10^3 cells/well. Twenty-four hours after plating, cells were treated with various SMSMs. After 72 hours, the cell culture media were removed and plates were stained with […] of a solution containing 0.5% crystal violet and 25% methanol, rinsed with deionized water, dried overnight, and resuspended in […] citrate buffer (0.1 M sodium citrate in 50% ethanol) to assess plating efficiency. Intensity of crystal violet staining, assessed at 570 nm and quantified using a Vmax Kinetic Microplate Reader and Softmax software (Molecular Devices Corp., Menlo Park, Calif.), were directly proportional to cell number. Data were normalized to vehicle-treated cells and were presented as the mean±SE from representative experiments. SMSMs that are effective were determined for various cells lines.
A-673 cell viability […], splicing (IC50) and brain AUC/Plasma AUC of SMSMs were determined. As shown in the tables below SMSMs had high CNS exposure.

Row | Compound | IC50 [nM]
3 | Oc1cc(-c2cn[nH]c2)ccc1-c1ccc(N2CCC23CCNCC3)nn1 [compound 132, 2-(6-(1,7-diazaspiro[3.5]nonan-1-yl)pyridazin-3-yl)-5-(1H-pyrazol-4-yl)phenol] | > 1000
4 | CN(c1ccc(-c2ccc(-c3cn[nH]c3)cc2O)nn1)[C@@H]1C[C@]2(C)CC[C@](C)(C1)N2 [compound 150, 2-(6-(((1R,3r,5S)-1,5-dimethyl-8-azabicyclo[3.2.1]octan-3-yl)(methyl)amino)pyridazin-3-yl)-5-(1H-pyrazol-4-yl)phenol] | > 1000
5 | CN(c1ccc(-c2ccc(-c3cn[nH]c3)cc2O)nn1)[C@H]1C[C@]2(C)COC[C@](C)(C1)N2 [compound 156, 2-(6-(((1R,5S,7r)-1,5-dimethyl-3-oxa-9-azabicyclo[3.3.1]nonan-7-yl)(methyl)amino)pyridazin-3-yl)-5-(1H-pyrazol-4-yl)phenol] | 10 to 100
6 | CN(c1ccc(-c2ccc(-c3cn[nH]c3)cc2O)nn1)[C@@H]1C[C@]2(C)COC[C@](C)(C1)N2 [compound 157, 2-(6-(((1R,5S,7s)-1,5-dimethyl-3-oxa-9-azabicyclo[3.3.1]nonan-7-yl)(methyl)amino)pyridazin-3-yl)-5-(1H-pyrazol-4-yl)phenol] | > 1000
7 | COc1ccc2cc(-c3ccc(N(C)[C@@H]4C[C@H]5CC[C@@H](C4)N5)nn3)c(O)cc2c1 [compound 163, 3-(6-(((1R,3s,5S)-8-azabicyclo[3.2.1]octan-3-yl)(methyl)amino)pyridazin-3-yl)-7-methoxynaphthalen-2-ol] | 101 to 250
8 | CN(c1ccc(-c2cc3ccc(OCF)cc3cc2O)nn1)[C@@H]1C[C@H]2CC[C@@H](C1)N2 [compound 165, 3-(6-(((1R,3s,5S)-8-azabicyclo[3.2.1]octan-3-yl)(methyl)amino)pyridazin-3-yl)-7-(fluoromethoxy)naphthalen-2-ol] | 10 to 100
9 | CN(c1ccc(-c2cc3ccc(OC(F)F)cc3cc2O)nn1)[C@@H]1C[C@H]2CC[C@@H](C1)N2 [compound 166, 3-(6-(((1R,3s,5S)-8-azabicyclo[3.2.1]octan-3-yl)(methyl)amino)pyridazin-3-yl)-7-(difluoromethoxy)naphthalen-2-ol] | 501 to 1000
10 | [2H]C([2H])([2H])n1cc(-c2ccc(-c3ccc(N(C)[C@H]4C[C@]5(C)CC[C@](C)(C4)N5)nn3)c(O)c2)cn1 [compound 171, 2-(6-(((1R,3s,5S)-1,5-dimethyl-8-azabicyclo[3.2.1]octan-3-yl)(methyl)amino)pyridazin-3-yl)-5-(1-(methyl-d3)-1H-pyrazol-4-yl)phenol] | 10 to 100
11 | [2H]C([2H])([2H])Oc1cc(-c2ccc(-c3ccc(N(C)[C@H]4C[C@]5(C)CC[C@](C)(C4)N5)nn3)c(O)c2)ccn1 [compound 172, 2-(6-(((1R,3s,5S)-1,5-dimethyl-8-azabicyclo[3.2.1]octan-3-yl)(methyl)amino)pyridazin-3-yl)-5-(2-(methoxy-d3)pyridin-4-yl)phenol] | < 10
12 | COc1cc(-c2ccc(-c3ccc(N(C)[C@H]4C[C@]5(C)CC[C@](C)(C4)N5)nn3)c(O)c2)ccn1 [compound 173, 2-(6-(((1R,3s,5S)-1,5-dimethyl-8-azabicyclo[3.2.1]octan-3-yl)(methyl)amino)pyridazin-3-yl)-5-(2-methoxypyridin-4-yl)phenol] | < 10
13 | CN(c1ccc(-c2ccc(-c3cnn(CF)c3)cc2O)nn1)[C@H]1C[C@]2(C)CC[C@](C)(C1)N2 [compound 174, 2-(6-(((1R,3s,5S)-1,5-dimethyl-8-azabicyclo[3.2.1]octan-3-yl)(methyl)amino)pyridazin-3-yl)-5-(1-(fluoromethyl)-1H-pyrazol-4-yl)phenol] | < 10
14 | CN(c1ccc(-c2ccc(-n3cc(F)cn3)cc2O)nn1)[C@H]1C[C@]2(C)CC[C@](C)(C1)N2 [compound 175, 2-(6-(((1R,3s,5S)-1,5-dimethyl-8-azabicyclo[3.2.1]octan-3-yl)(methyl)amino)pyridazin-3-yl)-5-(4-fluoro-1H-pyrazol-1-yl)phenol] | 10 to 100
15 | CN(c1ccc(-c2ccc(-n3cnc(F)c3)cc2O)nn1)[C@H]1C[C@]2(C)CC[C@](C)(C1)N2 [compound 176, 2-(6-(((1R,3s,5S)-1,5-dimethyl-8-azabicyclo[3.2.1]octan-3-yl)(methyl)amino)pyridazin-3-yl)-5-(4-fluoro-1H-imidazol-1-yl)phenol] | 10 to 100
16 | Cc1cc(-c2ccc(N(C)[C@H]3C[C@]4(C)CC[C@](C)(C3)N4)nn2)c(O)cc1-c1ccn(C)c(=O)c1 [compound 178, 4-(4-(6-(((1R,3s,5S)-1,5-dimethyl-8-azabicyclo[3.2.1]octan-3-yl)(methyl)amino)pyridazin-3-yl)-5-hydroxy-2-methylphenyl)-1-methylpyridin-2(1H)-one] | 251 to 500
17 | CN(c1ccc(-c2ccc(-c3cnn(C(F)F)c3)cc2O)nn1)[C@H]1C[C@]2(C)CC[C@](C)(C1)N2 [compound 179, 5-(1-(difluoromethyl)-1H-pyrazol-4-yl)-2-(6-(((1R,3s,5S)-1,5-dimethyl-8-azabicyclo[3.2.1]octan-3-yl)(methyl)amino)pyridazin-3-yl)phenol] | 10 to 100
18 | CN(c1ccc(-c2ccc(-c3ncn(C)c(=O)n3)cc2O)nn1)[C@H]1C[C@]2(C)CC[C@](C)(C1)N2 [compound 181, 4-(4-(6-(((1R,3s,5S)-1,5-dimethyl-8-azabicyclo[3.2.1]octan-3-yl)(methyl)amino)pyridazin-3-yl)-3-hydroxyphenyl)-1-methyl-1,3,5-triazin-2(1H)-one] | 251 to 500
19 | CN(c1ccc(-c2ccc(-c3cc[nH]c(=O)c3)cc2O)nn1)[C@H]1C[C@]2(C)CC[C@](C)(C1)N2 [compound 183, 4-(4-(6-(((1R,3s,5S)-1,5-dimethyl-8-azabicyclo[3.2.1]octan-3-yl)(methyl)amino)pyridazin-3-yl)-3-hydroxyphenyl)pyridin-2(1H)-one] | 10 to 100
20 | CN(c1ccc(-c2cc(F)c(-c3cc[nH]c(=O)c3)cc2O)nn1)[C@H]1C[C@]2(C)CC[C@](C)(C1)N2 [compound 184, 4-(4-(6-(((1R,3s,5S)-1,5-dimethyl-8-azabicyclo[3.2.1]octan-3-yl)(methyl)amino)pyridazin-3-yl)-2-fluoro-5-hydroxyphenyl)pyridin-2(1H)-one] | 10 to 100
21 | CN(c1ccc(-c2ccc(-c3ccnc(OC(F)F)c3)cc2O)nn1)[C@H]1C[C@]2(C)CC[C@](C)(C1)N2 [compound 185, 5-(2-(difluoromethoxy)pyridin-4-yl)-2-(6-(((1R,3s,5S)-1,5-dimethyl-8-azabicyclo[3.2.1]octan-3-yl)(methyl)amino)pyridazin-3-yl)phenol] | 501 to 1000
